Experimental data: patent US20040007689A1, “Process for controlling the hydrate mix of a compound” (Pfizer Inc., priority 2002, published 2004)

Legend:
[1] = Chemical and thermal stability of DSFF hydration forms and hydrate mixes; format: physicochemical; details: for stability of hydration form (chemical / thermal): hydration forms of DSFF, solid state
[2] = Water content of freeze-dried DSFF product; format: physicochemical; details: DSFF subjected to a typical freeze-drying process

O.O.O.O=P([O-])([O-])OC(Cn1cncn1)(Cn1cncn1)c1ccc(F)cc1F.[Na+].[Na+] [trihydrate, DSFF Trihydrate]
stability of hydration form (chemical / thermal) [1]: chemically and thermally stable

O.O.O.O.O.O.O=P([O-])([O-])OC(Cn1cncn1)(Cn1cncn1)c1ccc(F)cc1F.[Na+].[Na+] [hexahydrate, DSFF Hexahydrate]
stability of hydration form (chemical / thermal) [1]: chemically and thermally stable

O=P([O-])([O-])OC(Cn1cncn1)(Cn1cncn1)c1ccc(F)cc1F.[Na+].[Na+] [DSFF, disodium salt of fosfluconazole]
stability of product of typical freeze-drying process ([1]; DSFF after typical freeze-drying with secondary drying, water content about 1.2% w/w (below monohydrate stoichiometry)): chemically unstable and degrades | water content of product of typical freeze-drying process [2]: about 1.2 % w/w
